# Patent publication US10835506B2, “Treatment and prevention of muscle loss using L-ornithine in combination with at least one of phenylacetate and phenylbutyrate” (OCERA THERAPEUTICS, INC., priority 2015, dated 2020)
# System: Fisher 344×Brown Norway (FBN) rat
# Test: Treatment of sarcopenia (age-related muscle loss) in FBN hybrid rats
# Assay type: in vivo
# Conditions: middle age and/or old FBN hybrid rats; OP administered e.g. orally
# Protocol: The Fisher 344×Brown Norway (FBN) rat model has been recommended by the National Institute on Aging (NIA) for age-related research. […] Significant muscle mass loss, a reduction in muscle CSA, and muscle fiber loss are expected in, for example, the quadriceps muscles of the aged rat.
# OP is administered, for example orally, to young, middle age, and old FBN hybrid rats.
substance,measurement,value
L-ornithine phenylacetate [OP],muscle mass loss,effective in reducing muscle mass loss
